Legend:
[1] = target: Quis (quisqualate) receptor; assay: [3H]AMPA (QUIS) receptor binding assay, synaptic plasma membranes; conditions: [3H]AMPA 10 nM, 100 mM KSCN, 0-4° C., 10 min
Description: Synaptic plasma membranes (SPM) were prepared as previously described [Monahan, J. B. and Michel, J., "Identification and Characterization of an N-methyl-D-aspartate-specific L[^3 H]glutamate Recognition Site in Synaptic Plasma Membranes, J. Neurochem., 48, 1699-1708 (1987)]. The SPM were stored at a concentration of 10-15 mg/ml in 0.32M sucrose, 0.5 mM EDTA, 1 mM MgSO4, 5 mM Tris/SO4, pH 7.4, under liquid nitrogen. The identity and purity of the subcellular fractions were confirmed by both electron microscopy and marker enzymes. Protein concentrations were determined by using a modification of the method of Lowry [Ohnishi, S. T. and Barr, J. K., "A Simplified Method of Quantitating Proteins Using the Biuret and Phenol Reagents", Anal. Biochem., 86, 193-197 (1978)].
The SPM were treated identically for the [^3 H]AMPA (QUIS), [^3 H]kainate and sodium-dependent L-[^3 H]-glumatate binding assays. The SPM were thawed at room temperature, diluted twenty-fold with 50 mM Tris/acetate, pH 7.4, incubated at 37° C. for 30 minutes, and centrifuged at 100,000 g for 15 minutes. The dilution, incubation, and centrifugation was repeated a total of three times.
The basic procedure for the receptor subclass binding assays was similar. This general method involved adding the radioligand (12.5 nM L-[^3 H]glutamate; 0.5 nM [^3 H]kainate or 10 nM [^3 H]AMPA) to the appropriate concentration of the test compound and initiating the assay by the addition of ice cold synaptic plasma membranes (0.2-0.45 mg). The binding assays were performed in 1.5 mL centrifuge tubes with the total volume adjusted to 1.0 mL. .Additions of test compounds were made in 50 mM Tris/acetate, pH 7.4 and incubations were carried out at 0°-4° C. The incubation time for the NMDA and the AMPA binding assays was 10 minutes, for the kainate binding assay 60 minutes and for the sodium-dependent glutamate binding assay 15 minutes. The AMPA binding assay contained 100 mM KSCN and the sodium-dependent glutamate binding assay contained 150 mM sodium acetate in addition to the previously described reagents.
To terminate the incubation, the samples were centrifuged for 15 minutes at 12,000 g and 4° C. in a Beckman Microfuge 12. The supernatant was aspirated and the pelleted membranes dissolved in Beckman BTS-450 tissue solubilizer for a minimum of 6 hours at room temperature. Beckman MP scintillation cocktail containing 7 mL/1 acetic acid was then added and the samples counted on a Beckman LS 5800 or 3801 liquid scintillation counter with automatic corrections for quenching and counting efficiency.
Nonspecific binding was defined as the residual binding in the presence of either excess L-glutamate (0.1-0.4 mM), kainate (0.01 mM), or NMDA (0.5 mM), and was 15-25% of the total binding in the NMDA binding assay, 19-27% in the AMPA binding assay, 20-30% in the kainate binding assay and 10-15% in the sodium-dependent binding assay. Radioligand binding to the synaptic plasma membranes was analyzed using Scatchard and Hill transformations and the Ki values of the compounds determined using logit-log transformations. Calculations and regression analysis were performed using templates developed for Lotus 1, 2, 3 as previously described [Pullan, L. M. "Automated Radioligand Receptor Binding Analysis with Templates for Lotus", Computer Appln. Biosci., 3 131 (1987)]. Binding results are reported in Table II for example compounds of the invention. […]

[2] = tested on: hippocampal neurons; assay: Glutamate Toxicity Survival Assay, cultured hippocampal neurons (MTT); format: cell-based, Sprague-Dawley rat; conditions: 5 μM compound
Description: Hippocampal neurons were obtained from embryonic day 17 Sprague-Dawley rats. The brains were removed and the hippocampus dissected, placed in ice-cold Leibovitz L-15 medium, carefully stripped of any remaining meninges, and minced into small pieces using scissors. […] Following incubation, the cells were rinsed with 10% serum-containing medium and dissociated by gentle trituration using a reduced bore diameter Pasteur pipet. The cells were plated on a polylysine-coated (0.5 rg/ml, Sigma) 96-well microtiter plates at 30,000 cells/well.
The neuronal survival assay utilized the compound MTT [3-(4,5-dimethylthiazol-2-yl)-2,5-diphenyl tetrazolium bromide], a pale yellow substrate that is cleaved by the mitochondrial enzyme succinate-dehydrogenase to yield a dark blue formazan product. This process requires active mitochondria, present only in live cells. Cultures of hippocampal neurons grown in 96-well plates were incubated with 1 mg/ml MTT at 36° C. in a 10% CO2 -in-air incubator for 30-60 minutes. At the end of the incubation, a dark blue precipitate outlined only viable cells. The precipitate was then solubilized using 0.08N HCl/isopropanol mixture and the absorbance measured with an ELISA plate reader (Dynatech MR600) using a test wavelength of 570 nm and a reference wavelength of 630 nm. The resulting optical density is directly proportional to the number of viable cells.

[3] = tested on: NMDA-induced focal potentials, hippocampal slices; assay: In Vitro Hippocampal Slice Assay (NMDA-induced focal potentials); format: cell-based, Sprague-Dawley albino rat; conditions: Rattus norvegicus; 100 μM NMDA pressure ejections, recorded in CA1
Description: Hippocampal slices were prepared from male, Sprague-Dawley albino rats (100-300 gm) and maintained as described previously [Ganong, A. H., Lanthorn, T. H., Cotman, C. W., "Kynurenic Acid Synaptic and Acidic Amino Acid-Induced Responses in the Rat Hippocampus and Spinal Cord", Brain Research, 273 170-174 (1983)]. The hippocampus was removed in the cold and sliced to a thickness of 450 microns on a McIlwain tissue chopper in experimental medium (124 mM NaCl, 2.5 mM KCl, 1.0 mM KH2 PO4, 26.4 mM NaHCO3, 2 mM CaCl2, 1.5 mM MgSO4, and 10 mM D-glucose) with 10 mM Hepes. The slices were quickly transferred to a static bath and rinsed with experimental medium (without Hepes) and maintained at 34°-35° C. in a humidified chamber with 95% oxygen and 5% carbon dioxide. As needed, slices were transferred from the static bath to a small perfusion chamber where they were secured with an upper net and completely submerged in a continuously flowing experimental medium (2.0 ml/min). The Schaffer collateral/commissural-CAl (S/C-CAl) synaptic response was stimulated (0.05 Hz; 0.01 msec. single duration shock) with bipolar electrodes (Rhodes, Inc.) from stratum radiatum at the CA2-CA3 border. Evoked field EPSPs and drug-induced focal potentials were recorded in the middle portion of CAl. […]

SMILES: NC(C(=O)O)c1ccc(CP(=O)(O)O)cc1 (stereo not drawn) [Example VI, 4-(Phosphonomethyl)phenylglycine]
- Ki [1]: > 300 µM
- protection of neurons from glutamate toxicity [2]: Significant protection
- IC50 [3]: 4 µM

Source: patent US4918064A, “Phenyl glycines for use in reducing neurotoxic injury” (G. D. Searle & Co., priority 1987, dated 1990)
